Assays:
TMV [1] = test: Inactivation effect of compounds against TMV in vivo; parameters: species or system tobacco mosaic virus; conditions: for inhibition at 100 µg/mL / inhibition at 500 µg/mL: Tobacco mosaic virus, read-out: relative inhibition rate (%) inactive effect
TMV [2] = test: Curative effect of compounds against TMV in vivo; conditions: Tobacco mosaic virus, read-out: relative inhibition rate (%) curative effect
TMV [3] = test: Protective effect of compounds against TMV in vivo; parameters: species or system tobacco mosaic virus; conditions: for inhibition at 100 µg/mL / inhibition at 500 µg/mL: Tobacco mosaic virus, read-out: relative inhibition rate (%) protective effect
Alternaria solani = type: cell-based; conditions: read-out: Inhibition rate, As
Fusarium graminearum = test: microbe, parasite or virus in culture; type: cell-based; conditions: read-out: Inhibition rate, Fg
Phytophthora capsici = type: cell-based; conditions: read-out: Inhibition rate, Pc
Sclerotinia sclerotiorum = type: cell-based; conditions: read-out: Inhibition rate, Ss
Botrytis cinerea = type: cell-based; conditions: read-out: Inhibition rate, Bc
Rhizoctonia solani = type: cell-based; conditions: read-out: Inhibition rate, Rs
[4] = tested on: Fusarium oxysporium f. sp. cucumeris; type: cell-based; conditions: read-out: Inhibition rate, Fc
Physalospora piricola = type: cell-based; conditions: read-out: Inhibition rate, Pp, 50 mg/L, Physalospora piricola
Bipolaris maydis = type: cell-based; conditions: read-out: Inhibition rate, Bm
watermelon anthracnose = test: organism not typed; type: cell-based; conditions: read-out: Inhibition rate, Wa

| Compound | inhibition at 100 µg/mL (TMV [1]) [%] | inhibition at 500 µg/mL (TMV [1]) [%] | inhibition at 100 µg/mL (TMV [2]) [%] | inhibition at 500 µg/mL (TMV [2]) [%] | inhibition at 100 µg/mL (TMV [3]) [%] | inhibition at 500 µg/mL (TMV [3]) [%] | inhibition at 50 µg/mL (Alternaria solani) [%] | inhibition at 50 µg/mL (Fusarium graminearum) [%] | inhibition at 50 µg/mL (Phytophthora capsici) [%] | inhibition at 50 µg/mL (Sclerotinia sclerotiorum) [%] | inhibition at 50 µg/mL (Botrytis cinerea) [%] | inhibition at 50 µg/mL (Rhizoctonia solani) [%] | inhibition at 50 µg/mL [4] [%] | inhibition at 50 µg/mL (Physalospora piricola) [%] | inhibition at 50 µg/mL (Bipolaris maydis) [%] | inhibition at 50 µg/mL (watermelon anthracnose) [%] | relative inhibition rate (%) inactive effect (TMV [1]; 100 mg/L, in vivo, against TMV) | relative inhibition rate (%) protective effect (TMV [3]; 100 mg/L, in vivo, against TMV) |
| --- | --- | --- | --- | --- | --- | --- | --- | --- | --- | --- | --- | --- | --- | --- | --- | --- | --- | --- |
| O=C(Cn1ccc(=O)c2ccccc21)NN=Cc1ccc(C(F)(F)F)cc1 [Compound 17] | 7.5 ± 0.2 | 47.1 ± 1.9 | 17.7 ± 1.5 | 49.2 ± 3 | 19 ± 1.8 | 44.1 ± 1.4 | 15.4 ± 1.3 | 19 ± 1.2 | 9.5 ± 0.8 | 22 ± 1.3 | 18.8 ± 1.5 | 3.6 ± 0.7 | 26.5 ± 1.7 | 47.1 ± 1.4 | 8.9 ± 0.9 | 11.6 ± 1.2 | – | – |
| O=C(Cn1ccc(=O)c2ccccc21)NN=Cc1ccc([N+](=O)[O-])cc1 [Compound 15] | 0 | 16.1 ± 4.8 | – | – | – | – | 30.8 ± 1.1 | 7.1 ± 1.3 | 14.3 ± 0.6 | 12.2 ± 1.4 | 27.1 ± 2.4 | 17.9 ± 1.3 | 24.5 ± 1.6 | 72.1 ± 2.6 | 40 ± 1.3 | 34.9 ± 1.5 | – | – |
| O=C(Cn1ccc(=O)c2ccccc21)NN=Cc1coc2ccccc12 [Compound 24] | 0 | 33.5 ± 0.6 | – | – | – | – | 23.1 ± 1.3 | 19 ± 1.2 | 19 ± 0.9 | 12.2 ± 0.5 | 20.8 ± 1.5 | 17.9 ± 1.5 | 22.4 ± 1.2 | 17.6 ± 1.2 | 11.1 ± 1.8 | 9.3 ± 0.7 | – | – |
| O=C(Cn1ccc(=O)c2ccccc21)NN=Cc1cccnc1 [Compound 19] | 0 | 20.5 ± 3.6 | – | – | – | – | 46.2 ± 2.2 | 26.2 ± 0.9 | 14.3 ± 1.2 | 36.6 ± 1.6 | 20.8 ± 0.9 | 26.8 ± 1.4 | 26.5 ± 0.7 | 44.1 ± 2.8 | 46.7 ± 1.1 | 46.5 ± 1.3 | – | – |
| NNC(=O)Cn1ccc(=O)c2ccccc21 [C, (4-Oxo-4H-quinolin-1-yl)-acetic Acid Hydrazide] | 17.2 ± 1.1 | 45.9 ± 3.3 | 8.2 ± 0.5 | 31.5 ± 2 | 11.4 ± 2.9 | 47.8 ± 4.8 | – | – | – | – | – | – | – | – | – | – | – | – |
| O=C(Cn1ccc(=O)c2ccccc21)NN=Cc1cc2ccccc2[nH]1 [Compound 23] | 0 | 40.1 ± 2.7 | 6.6 ± 1.9 | 32.5 ± 4.1 | 0 | 43.9 ± 1 | 15.4 ± 1.5 | 14.3 ± 1.1 | 31 ± 2.1 | 12.2 ± 0.9 | 10.4 ± 1.2 | 3.6 ± 0.5 | 6.1 ± 1.3 | 51.5 ± 2.3 | 8.9 ± 1.1 | 11.6 ± 0.9 | did not exhibit any | did not exhibit any |
| O=C(Cn1ccc(=O)c2ccccc21)NN=Cc1ccc(Cl)cc1 [Compound 13] | 0 | 18.6 ± 0.7 | – | – | – | – | 30.8 ± 1.3 | 2.4 ± 0.9 | 14.3 ± 1.3 | 7.3 ± 0.5 | 14.6 ± 1.3 | 12.5 ± 1.4 | 24.5 ± 1.3 | 17.6 ± 1.5 | 8.9 ± 0.7 | 27.9 ± 2.3 | – | – |

From article PMC11360041 (ACS Omega, 2024)
